The values that follow are results of earlier work, collected in patent publication US20250350689A1, “INTRAVENOUS DOFETILIDE AND USES THEREOF” (Hyloris Developments SA, priority 2023, published 2025).

“And” between values parts separate entries of the source, which are not always exact repeats. Equal values may be shown once. Read-outs that look alike come from different tables or passages of the source.

Assay in data set [1]: not given
This is another data set of the same source.

The subject of a further data set is QTc interval. As to conditions: slope of QTc versus dofetilide plasma concentration, Sedgwick et al.
For data set [2] the following is noted: clinical studies, life threatening arrhythmias.

For `CN(CCOc1ccc(NS(C)(=O)=O)cc1)CCc1ccc(NS(C)(=O)=O)cc1` [dofetilide], the plasma concentration (infusion of 3.0 μg/mL) is 5.35 ng/mL. For the same compound, the IV dofetilide kinetics entry (relationship between IV dose and serum concentration) was “linear”. In addition, the peak plasma concentration (single dose, 10 min. IV infusion of 1.5 μg/kg) was 1.74 ng/mL and 1.7 ng/mL. The “plasma concentration Cmax” value in data set [1] (500 μg oral dose, single dose) is reported as 1.9 ng/mL. The “time to reach a steady state concentration” value in data set [1] (oral dofetilide) is given as “at least 3 days”. Besides, in the data set with QTc interval, the “QTc change per plasma concentration” value is 15 to 25 ms/ng/mL. Besides, the “safety in patients with poor heart function / heart failure” value in data set [2] was “not to increase life threatening arrhythmias”; in data set [2] (listed as Dofetilide) it was “safe”.
